Test results published in US8936941B2, “Compositions useful for cancer detection and treatment, a cancer stem cell model, and methods of production and use thereof” (priority 2008, dated 2015).

Tests used:
Assay type in all cases: cell-based, human
DCAMKL-1 [1] = assay: siRNA knockdown of DCAMKL-1 in HCT116 cells, real-time RT-PCR and Western blot
Method: (§1) Cell culture. HCT116, HCT116 p21^−/− and SW480 human colon adenocarcinoma cell lines were obtained from the American Type Culture Collection (ATCC) and grown in Dulbecco's modified eagle's medium (DMEM) supplemented with 10% fetal bovine serum and 100 U/mL penicillin-streptomycin in a humidified chamber at 37° C. with 5% CO2.
Silencer RNA. DCAMKL-1 siRNA (si-DCAMKL-1) sequence targeting the coding region of DCAMKL-1 (Accession # NM_004734 (SEQ ID NO:1)) ([…] (SEQ ID NO:3)) and scrambled control siRNAs (si-Scr) not matching any of the human genes were obtained (Ambion Inc., Austin, Tex.) and transfected using Transfectol™ (Ambion Inc.).
Real-time reverse transcription-PCR analyses. Total RNA isolated either from cells or from human colon cancer cell tumor xenograft samples was subjected to reverse transcription with Superscript™ II RNase H—Reverse Transcriptase and random hexanucleotide primers (Invitrogen, Carlsbad, Calif.). The cDNA was subsequently used to perform Real-time PCR by SYBR chemistry (SYBR® Green I; Molecular Probes) for specific transcripts using gene specific primers and Jumpstart Taq DNA polymerase (Sigma-Aldrich, St. Louis, Mo.). […] The changes in mRNA were expressed as fold change relative to control with ±SEM value.
miRNA analysis. Total miRNA was isolated using mirVana™ miRNA isolation kit (Ambion Inc.). Total miRNA isolated either from cells or from human colon cancer cell tumor xenograft samples were subjected to reverse transcription with Superscript™ II RNase H—Reverse Transcriptase and random hexanucleotide primers (Invitrogen, Carlsbad, Calif.). The cDNA was subsequently used to perform Real-time PCR by SYBR chemistry (SYBR® Green I; Molecular Probes) for pri-let-7a transcript using specific primers and Jumpstart Taq DNA polymerase (Sigma-Aldrich, St. Louis, Mo.). […] The changes in pri-miRNA were expressed as fold change relative to control with ±SEM value. Primers used are: […]
Western Blot analysis. HCT116 and SW480 cells were cultured in a 6 well plates to 40% confluency and were transfected with si-DCAMKL-1 or si-Scr for 72 h. Cells or the tumor xenograft samples were lysed and the concentration of protein was determined by BCA protein assay kit (Pierce Biotechnology Inc., Rockford, Ill.). Forty μg of the protein was size separated in a 7.5-15% SDS polyacrylamide gel and transferred onto a nitrocellulose membrane with a semidry transfer apparatus (Amersham-Pharmacia, Piscataway, N.J.). The membrane was blocked in 5% non-fat dry milk for 1 h and probed overnight with a rabbit anti-DCAMKL-1 antibody (Abcam Inc., Cambridge, Mass.) or with rabbit anti-c-Myc antibody (Santa Cruz). Subsequently, the membrane was incubated with anti-rabbit or anti-goat IgG horseradish peroxidase-conjugated antibodies (Amersham-Pharmacia) for 1 h at room temperature. The 82 kDa DCAMKL-1 and 49 kDa c-Myc proteins were detected using ECL™ Western Blotting detection reagents (Amersham-Pharmacia). Actin (43 kDa), used as loading control was identified using a goat polyclonal IgG (Santa Cruz Biotechnology Inc., Santa Cruz, Calif.).

DCAMKL-1 [2] = assay: siRNA knockdown of DCAMKL-1 in BxPC3 pancreatic cancer cells, real-time RT-PCR
Method: as §1, with “Culture: AsPC-1” for “culture. HCT116, HCT116 p21^−/−”, “BxPC3” for “SW480”, “pancreatic” for “colon”, “Collection” for “Collection (ATCC)”, “Eagle” for “eagle's”
Silencer RNA: DCAMKL-1 small interfering RNA (siRNA) (si-DCAMKL-1) sequence targeting the coding region of DCAMKL-1 (accession No. NM_004734; SEQ ID NO:1) ([…]tt (SEQ ID NO:3)) and scrambled siRNAs (si-Scr) not matching any of the human genes were obtained (Ambion Inc, Austin, Tex.) and transfected using siPORT™ NeoFX™ (Ambion, Inc).
Real-time Reverse Transcription-Polymerase Chain Reaction Analyses: Total RNA isolated from human pancreatic cancer cells or cells sorted from normal mouse pancreas were subjected to reverse transcription with Superscript II RNase H-Reverse Transcriptase and random hexanucleotide primers (Invitrogen, Carlsbad, Calif.). […] The changes in mRNA were expressed as fold change relative to control with ±SEM value.
miRNA Analysis: total RNA isolated from human pancreatic cancer cell lines or cells sorted from normal mouse pancreas was subjected to reverse transcription with Superscript II RNase H-Reverse Transcriptase and random hexanucleotide primers (Invitrogen). […] The changes in pri-miRNA were expressed as fold change relative to control with ±SEM values.

[3] = tested on: let-7 family binding sites (similar to KRAS 3' UTR); assay: KRAS-Luc luciferase reporter gene assay in AsPC-1 cells
Text: (§2) Luciferase Reporter Gene Assay: pLet7a-Luc reporter vector contains a let-7a miRNA specific binding site at the 3′ UTR of the firefly (Photinus pyralis) luciferase gene, pMiR-144-Luc reporter vector containing miR-144 miRNA specific binding site at the 3′UTR of the firefly luciferase gene and KRAS-Luc reporter vector containing specific binding sites for let-7 family members at the 3′UTR of the firefly luciferase gene were obtained from Signosis, Inc. (Sunnyvale, Calif.). Human pancreatic cancer cell lines were transfected with the pLet7a-Luc, pMiR-144-Luc and KRAS-Luc reporter vectors separately with Renilla luciferase expressing plasmid pRL-TK (Promega) along with DCAMKL-1, or scrambled siRNA-using siPORT™ NeoFX™ transfection reagent (Ambion, Inc.). Luciferase activity was determined as per the manufacturer's instructions (Dual Luciferase Reporter Assay System; Promega) using a BioTek Synergy HT (Winooski, Vt.) as described herein above. The activity, normalized to Renilla luciferase activity, is presented as relative luciferase units relative to control with ±SEM values. Assays were performed in triplicate wells, and experiments were repeated 3 times.

miR-144 miRNA = assay: pMiR-144-Luc luciferase reporter gene assay in AsPC-1 cells
Text: as §2

DCAMKL-1, sequence (O15075 other isoform, or with tags, fused parts or gaps): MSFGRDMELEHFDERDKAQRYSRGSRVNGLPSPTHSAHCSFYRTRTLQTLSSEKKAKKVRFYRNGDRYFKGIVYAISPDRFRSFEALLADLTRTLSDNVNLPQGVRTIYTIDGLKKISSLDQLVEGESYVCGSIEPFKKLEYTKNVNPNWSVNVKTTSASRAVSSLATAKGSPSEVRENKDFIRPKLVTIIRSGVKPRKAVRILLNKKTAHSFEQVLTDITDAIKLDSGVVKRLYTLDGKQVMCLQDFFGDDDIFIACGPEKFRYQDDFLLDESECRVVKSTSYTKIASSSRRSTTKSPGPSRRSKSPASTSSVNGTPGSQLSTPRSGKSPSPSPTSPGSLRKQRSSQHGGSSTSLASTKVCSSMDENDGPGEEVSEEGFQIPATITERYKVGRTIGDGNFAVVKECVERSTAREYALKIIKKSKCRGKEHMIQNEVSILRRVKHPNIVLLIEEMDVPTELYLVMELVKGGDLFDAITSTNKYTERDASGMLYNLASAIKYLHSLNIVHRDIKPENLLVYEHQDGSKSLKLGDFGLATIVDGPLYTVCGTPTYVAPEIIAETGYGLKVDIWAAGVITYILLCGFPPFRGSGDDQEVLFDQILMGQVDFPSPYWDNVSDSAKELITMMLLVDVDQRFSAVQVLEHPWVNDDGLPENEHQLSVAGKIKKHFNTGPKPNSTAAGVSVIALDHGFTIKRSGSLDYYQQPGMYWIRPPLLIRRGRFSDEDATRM

si-DCAMKL-1: siRNA targeting the coding region of DCAMKL-1 (NM_004734), sequence GGGAGUGAGAACAAUCUAC (SEQ ID NO:3) (chemistry not given here; listed as Homo sapiens)
c-Myc mRNA and protein (DCAMKL-1 [1]): Reduction
reduction in Notch-1 mRNA (DCAMKL-1 [1]): 40%
Notch-1 and cleaved Notch-1 protein (DCAMKL-1 [1]; Western blot): dose dependent reduction
DCAMKL-1 protein (DCAMKL-1 [1]; Western blot, 72 h transfection): reduction
reduction in DCAMKL-1 mRNA expression (DCAMKL-1 [1]; real-time RT-PCR): > 70%
increase in pri-let-7a miRNA (DCAMKL-1 [1]; real-time RT-PCR, compared to controls): 4 fold
increase in pri-let-7a miRNA (DCAMKL-1 [2]; compared to control and siSCR): 3 fold
Notch1 mRNA (DCAMKL-1 [2]; compared to siSCR or control): significant decrease
luciferase activity (KRAS-Luc, let-7 family binding sites) [3]: dose-dependent reduction
luciferase activity (miR-144 binding site in 3' UTR) (miR-144 miRNA): dose-dependent reduction
